A melting point compilation (Tetko et al.; mined from patent text by program, amines drawn as free bases though some values may be those of a salt)

Which melting point does the source give for `Cc1c(N)c(C)c(Cc2ccc(C(C)C)cc2)c2c1CCO2` here?
Its melting point is 114 to 115 °C.

With `COC(=O)Cc1cn(C)nc1OCc1ccc(OCc2csc(-c3ccccc3)n2)nc1` as the compound, how does the melting point read?
The melting point was 85 to 86 °C.

Which melting point does the source give for `CCOC(=O)C1=C(C)NC(C)=C(C(=O)OCC)C1c1cccc2nonc12` here?
Its melting point is 153 to 155 °C.

With `CCOC(=O)/C=C/C=C/c1ccc(OCc2nc(-c3ccccc3)oc2C)cc1` as the compound, how does the melting point read?
Its melting point is 137 to 138 °C.

For `CCOC(=O)c1ccc(-c2cnc(-c3ccc(C(F)(F)F)cc3)o2)cc1`, which melting point is on record?
Its melting point is 142 to 143 °C.

Which melting point does the source give for `O=c1c2ccccc2ccc2ccc(I)cc12` here?
The melting point was 97.5 to 99 °C.

For `CC(C)c1cc(C(=O)CO[C@@H]2C[C@H](C)CC[C@H]2C(C)C)cc(C(C)C)c1O`, which melting point is on record?
The melting point was 83 to 84 °C.

For `CC(C)Oc1ccccc1C(=O)NC(=O)NC1CN2CCC1CC2` (configuration not stated), which melting point is on record?
The melting point was 171 to 175 °C.

For `CN(C)C(=N[N+](=O)[O-])N(C)Cc1cnc(Cl)s1`, which melting point is on record?
Its melting point is 101 to 102 °C.

Which melting point does the source give for `CCCCCCCCOc1cc2cc(C(=O)OC)c(C(=O)OC)c(-c3ccnc(Cl)c3)c2cc1OC` here?
Its melting point is 93 to 97 °C.

For `CC(C)(C)c1cc(C(c2cccc([N+](=O)[O-])c2)N2CCCCC2)cc(C(C)(C)C)c1O` (configuration not stated), which melting point is on record?
The melting point was 157 °C.

Which melting point does the source give for `CCCC(C(=O)N(C)C)n1cc(C)c(-c2ccco2)n1` (configuration not stated) here?
Its melting point is 107 to 109 °C.

Which melting point does the source give for `O=C1COC(c2cccc(Cl)c2)c2ncccc21` (configuration not stated) here?
Its melting point is 158 to 160 °C.

For `CC(C)(C)OC(=O)NC(CO)c1ccc(F)cc1` (configuration not stated), which melting point is on record?
The melting point was 85 to 86 °C.

Which melting point does the source give for `COC(=O)c1ncoc1CCNC(=O)OCc1ccccc1` here?
Its melting point is 68 to 70 °C.

With `c1ccc(-c2nn3c(c2-c2nc4ccccc4[nH]2)CCC3)nc1` as the compound, how does the melting point read?
The melting point was 172 to 175 °C.

For `CC(=NNC(=N)N)c1sc(-c2ccc(-c3ccccc3)cc2)nc1C`, which melting point is on record?
Its melting point is 278 to 280 °C.

For `NC(=S)NCc1cn(-c2ccc(N3CCOCC3)c(F)c2)nn1`, which melting point is on record?
Its melting point is 192 °C.

With `COCCNc1cc(Cl)nc(-c2ccccc2)n1` as the compound, how does the melting point read?
Its melting point is 128 to 130 °C.

For `COc1ccc(S(=O)(=O)C2(CCCC#Cc3ccc(Cl)cc3)SC(=O)NC2=O)cc1` (configuration not stated), which melting point is on record?
The melting point was 172 to 174 °C.

With `CN1C(=O)N(c2cc(Cl)cc(Cl)c2)C(=O)[C@]12CN(CC(=O)O)C[C@H]2c1ccc(C#N)cc1` (relative stereo) as the compound, how does the melting point read?
Its melting point is 220 °C.

With `Cc1c(-c2ccc(O)cc2)n(Cc2ccc(OCCN3CCCCCC3)cc2)c2ccc(O)cc12` as the compound, how does the melting point read?
Its melting point is 168 to 171 °C.

With `CC(C)(C)OC(=O)N[C@H](Cc1ccccc1)C(=O)OCCCNc1cccc2c1C(=O)c1ccccc1C2=O` as the compound, how does the melting point read?
The melting point was 168 °C.

For `NC(=O)c1c(Cl)cc(Cl)c(OCC(=O)O)c1Cl`, which melting point is on record?
Its melting point is 261 to 262 °C.

With `CCCCc1ccc(C(=O)SCC2C(=O)OCC2c2ccccc2)cc1` (configuration not stated) as the compound, how does the melting point read?
Its melting point is 91 to 93 °C.

Which melting point does the source give for `CCC(O)(CC)c1cc(Cl)ccc1O` here?
The melting point was 76 °C.

With `COc1cc(C(=O)NS(=O)(=O)c2ccccc2C)ccc1Cc1cn(CC(=O)N(C)C)c2ccc(NC(=O)CC3CCCC3)cc12` as the compound, how does the melting point read?
Its melting point is 215 to 218 °C.

Which melting point does the source give for `Cc1nc2c(N)nc3ccccc3c2n1CCCCS(C)(=O)=O` here?
Its melting point is 206 to 209 °C.

For `COC(=O)CCCc1cc2nc(C(F)(F)F)ccc2n1S(=O)(=O)c1ccccc1Cl`, which melting point is on record?
Its melting point is 88 °C.

With `CC(C)Sc1sc(-c2nnn(C)n2)c2c1C(=O)CC(C)(C)C2` as the compound, how does the melting point read?
Its melting point is 180 to 183 °C.

For `CCOc1cccc2cc(S(=O)(=O)Nc3ccc(OC)cc3)c(=O)oc12`, which melting point is on record?
The melting point was 196 to 198 °C.

For `O/N=C1/c2ccccc2OC12CCCCCC2`, which melting point is on record?
The melting point was 104 to 106 °C.

Which melting point does the source give for `COc1ccc(CC2C(=O)N(Cc3ccccc3)c3ccccc3NC2C)cc1` (configuration not stated) here?
The melting point was 136 to 137 °C.

With `Oc1ccc2nc(-c3cccc(O)c3O)oc2c1` as the compound, how does the melting point read?
Its melting point is 256 to 258 °C.

Which melting point does the source give for `Cn1nc(CC2CC2)c2sc(Cc3cccc(C(F)(F)F)c3)c(O)c2c1=O` here?
Its melting point is 92 to 93 °C.

Which melting point does the source give for `Clc1c2ccccc2nc2c1cnn2C1CCCC1` here?
Its melting point is 97 to 98 °C.

With `Cc1ccccc1OC1CCN(CCc2c[nH]c3ccccc23)CC1` as the compound, how does the melting point read?
Its melting point is 88 to 90 °C.

With `CC(=O)Nc1ccc(C=Nc2cc(Cl)c(N=CN(C)C)c(Cl)c2)cc1` as the compound, how does the melting point read?
Its melting point is 171 to 173 °C.

For `O=S(=O)(c1ccc(I)cc1)N1CCC(Br)(Br)C(c2ccc(Cl)c(C(F)(F)F)c2)=N1`, which melting point is on record?
Its melting point is 148 to 150 °C.

With `CCCn1c(-c2ccccc2)cc(=O)c(C(=O)O)c1-c1ccccc1` as the compound, how does the melting point read?
The melting point was 166 to 167 °C.

With `N#CC1(Nc2ccccc2)CCN(C2CCC(c3ccc(F)cc3)(c3ccc(F)cc3)CC2)CC1` as the compound, how does the melting point read?
Its melting point is 139 to 140 °C.

Which melting point does the source give for `O=C(Nc1nccs1)C(CC1CCCC1)c1ccc(NS(=O)(=O)C(F)(F)F)cc1` (configuration not stated) here?
Its melting point is 70 to 74 °C.

With `COc1ccc(NC(=O)Nc2c(Cl)cncc2Cl)cc1OC1CCCC1` as the compound, how does the melting point read?
Its melting point is 183 to 184 °C.

For `Cc1cc2c(cc1C(F)(F)F)N(C(=O)Nc1cnc(OCc3ccccn3)c(C)c1)CC2`, which melting point is on record?
The melting point was 188 to 189 °C.

With `Nc1cc(Cl)c([N+](=O)[O-])cc1CCO` as the compound, how does the melting point read?
Its melting point is 176 °C.

For `O=Cc1cncc(Br)c1`, which melting point is on record?
The melting point was 95 °C.

For `CCN(CC)CCCNC(=O)C1=C(O)c2ccccc2S(=O)(=O)N1C`, which melting point is on record?
The melting point was 107 to 110 °C.

With `CCOC(=O)CCCCCN(C)S(=O)(=O)C=C(C(C)=O)c1cccc([N+](=O)[O-])c1` as the compound, how does the melting point read?
Its melting point is 60 to 63 °C.

With `COc1cc(Nc2nccc(-c3ccc(NCCCN4CCOCC4)nc3)n2)cc(OC)c1OC` as the compound, how does the melting point read?
The melting point was 165 to 166 °C.

Which melting point does the source give for `O=C(Nc1ccccc1Nc1ccnc2c(NC(=O)c3c(Cl)cccc3Cl)cccc12)c1cccnc1` here?
Its melting point is 151 to 154 °C.

For `CCOC(=O)C(OC(=O)c1ccc(O)cc1)C(F)(F)F` (configuration not stated), which melting point is on record?
The melting point was 83.8 °C.

Which melting point does the source give for `O=C1CCCC(=O)C1=C(S)NCc1ccccc1` here?
Its melting point is 47 to 48 °C.

Which melting point does the source give for `CC(Oc1ncn(-c2cccc(C(F)(F)F)c2)n1)C(=O)N(C)C` (configuration not stated) here?
The melting point was 126 to 127 °C.

With `O=C(O)C1CCC(c2ccc(O)cc2)CC1` (configuration not stated) as the compound, how does the melting point read?
The melting point was 248 to 250 °C.

With `CCc1nn(CC(N)=O)c(CC)c1Oc1cccc(C#N)c1` as the compound, how does the melting point read?
The melting point was 159 to 160 °C.

For `COc1cccc2c1C(N)=NS2(=O)=O`, which melting point is on record?
The melting point was 270 °C.

With `O=C1CCN(Cc2ccccc2)CC1C1c2ccccc2C=Cc2ccccc21` (configuration not stated) as the compound, how does the melting point read?
The melting point was 167 to 169 °C.

For `CC(C)CNCc1cc2cc(NC(=O)c3ccc(C#CC4(O)CCC4)cc3)ccc2n1C`, which melting point is on record?
Its melting point is 168 to 169 °C.

Which melting point does the source give for `O=S(=O)(CCCl)c1ccc(O)cc1` here?
Its melting point is 72.5 to 73.5 °C.

With `CSc1cc(C(C)(C)C)n[nH]1` as the compound, how does the melting point read?
Its melting point is 135 to 136 °C.

Which melting point does the source give for `COc1ccc(C2SCc3c(sc(N)c3C(=O)c3cccc4ccccc34)S2)cc1` (configuration not stated) here?
Its melting point is 132 to 134 °C.

With `CCCNC(=O)c1ccc2c(c1)N(C(C)CN(C)CC)c1ccccc1S2` (racemic) as the compound, how does the melting point read?
Its melting point is 100 °C.

With `COc1ccc2c(c1)-c1c(C#N)c(N3CCCCC3)c3c(c1C2)-c1ccccc1C3` as the compound, how does the melting point read?
The melting point was 216 to 218 °C.

With `OC1C(CF)OC(n2cnc3c(NN4CCCCC4)nc(Cl)nc32)C1O` (configuration not stated) as the compound, how does the melting point read?
The melting point was 199 to 201 °C.

Which melting point does the source give for `COc1ccc2c(n1)c(C=C[N+](=O)[O-])c1n2CCCO1` here?
Its melting point is 248 to 249 °C.

With `O=C(Nc1cccc(F)c1)c1ccccc1O` as the compound, how does the melting point read?
The melting point was 157 to 159 °C.

For `COc1ccc(S(=O)(=O)c2ccc(OC)c(CC3CO3)c2)cc1CC1CO1` (configuration not stated), which melting point is on record?
The melting point was 105 to 108 °C.

For `O=C(Nc1ccccn1)Nc1cccc2c1C1CC3(CCN1C2=O)OCCO3` (configuration not stated), which melting point is on record?
Its melting point is 178 to 180 °C.

Which melting point does the source give for `Oc1ccc(Sc2nnc3cc(Cl)ccc3n2)cc1` here?
The melting point was 238 °C.

For `CCNc1ccc(C(=O)OC)cc1`, which melting point is on record?
The melting point was 132 to 135 °C.

Which melting point does the source give for `Cc1cccc(C)c1-n1cnc(NCc2ccccn2)nc1=O` here?
The melting point was 165 to 166 °C.

With `CN(C)S(=O)(=O)NC(c1ccccc1)P(=O)(Oc1ccccc1)Oc1ccccc1` (configuration not stated) as the compound, how does the melting point read?
The melting point was 193 to 196 °C.
